From US7781445B2, “Synthesis of indenoisoquinoliniums and methods of use” (Purdue Research Foundation, priority 2005, dated 2010)
Read-outs that look alike come from different tables or passages of the source.

Tests used:
MDA-MB-435 = assay: COMPARE screening (NCI), GI50 in MDA-MB-435
Source text: (§1) This in vitro prescreening system is based on the measurement of anticancer cytotoxicity against human cancer cell line panels consisting of approximately 60 cell lines of major human cancers (including leukemia, and slower growing tumor cells such as lung, colon, breast, skin, kidney, etc.) and is referred hereinafter as “COMPARE” screening.
(§2) COMPARE screening. The compounds described herein were examined for antiproliferative activity against the human cancer cell lines in the National Cancer Institute screen (COMPARE screening), in which the activity of each compound was evaluated with approximately 55 different cancer cell lines of diverse tumor origins. […] Therefore, the MGM value represents an overall assessment of toxicity of the compound across numerous cell lines.

[1] = system: all human cancer cell lines successfully tested (approximately 55); assay: COMPARE screening, mean graph midpoint (MGM); assay type: cell-based; details: average GI50 over all cell lines tested, values outside 10^-8 to 10^-4 molar taken as the limits, read-out: MGM (mean graph midpoint for growth inhibition); for MGM (mean GI50 across cell lines): Homo sapiens
Source text: as §1, §2

HOP-62 = assay: COMPARE screening (NCI), GI50 in HOP-62
Source text: as §1, §2

HCT-116 = assay: COMPARE screening (NCI), GI50 in HCT-116
Source text: as §1, §2

SF-539 = assay: COMPARE screening (NCI), GI50 in SF-539; details: Homo sapiens, read-out: Cytotoxicity GI50, CNS SF-539
Source text: as §1, §2

UACC-62 = assay: COMPARE screening (NCI), GI50 in UACC-62
Source text: as §1, §2

SN12C = assay: COMPARE screening (NCI), GI50 in SN12C
Source text: as §1, §2

DU-145 = assay: COMPARE screening (NCI), GI50 in DU-145
Source text: as §1, §2

topoisomerase I = biological target: T1, topoisomerase I (Homo sapiens, UniProt P11387); assay: Topoisomerase I-mediated DNA cleavage, 3'-end-labeled 161 bp pBluescript SK(-) fragment; assay type: biochemical; details: for top1-mediated DNA cleavage band at site 37 / top1-mediated DNA cleavage band at site 44: FIG. 1; for top1-mediated DNA cleavage band at site 37: cleavage site 37; for top1-mediated DNA cleavage band at site 44: cleavage site 44; for Top 1 Cleavage: tested at concentrations ranging up to 10 μM, semi-quantitative relative to compound A
T1 sequence (P11387 1-765): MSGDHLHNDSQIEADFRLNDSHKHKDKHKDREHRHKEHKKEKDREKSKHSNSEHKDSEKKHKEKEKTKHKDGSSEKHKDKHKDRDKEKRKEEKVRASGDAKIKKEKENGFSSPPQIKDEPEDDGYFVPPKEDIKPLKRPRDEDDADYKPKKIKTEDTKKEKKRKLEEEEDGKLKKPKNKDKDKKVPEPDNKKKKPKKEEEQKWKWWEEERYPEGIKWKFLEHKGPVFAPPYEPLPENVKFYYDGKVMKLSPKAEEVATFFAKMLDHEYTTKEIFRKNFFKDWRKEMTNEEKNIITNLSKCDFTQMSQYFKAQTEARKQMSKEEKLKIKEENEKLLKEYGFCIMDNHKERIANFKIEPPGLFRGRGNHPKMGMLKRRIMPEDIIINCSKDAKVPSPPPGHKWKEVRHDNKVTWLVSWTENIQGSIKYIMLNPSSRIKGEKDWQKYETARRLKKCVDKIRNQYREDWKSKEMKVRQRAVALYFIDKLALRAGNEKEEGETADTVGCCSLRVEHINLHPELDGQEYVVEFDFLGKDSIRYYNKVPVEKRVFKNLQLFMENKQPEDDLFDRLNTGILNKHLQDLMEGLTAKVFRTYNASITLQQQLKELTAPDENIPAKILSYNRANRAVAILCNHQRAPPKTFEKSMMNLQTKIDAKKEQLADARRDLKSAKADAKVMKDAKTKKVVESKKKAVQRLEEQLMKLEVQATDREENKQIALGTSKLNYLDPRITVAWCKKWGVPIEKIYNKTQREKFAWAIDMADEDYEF
Method: The assays were carried out at room temperature for 30 min and stopped by adding 0.5% SDS. […] Topoisomerase I was present in all reaction mixtures except for the one corresponding to the first lane.
Induction of DNA cleavage.
Labeling reactions were followed by phenol-chloroform extraction and ethanol precipitation. […] Reactions were terminated by adding 0.5% SDS.
DNA Cleavage Semiquantitative Analysis. […] The rubberband baseline correction was applied with band detection sensitivity set at 90.

OVCAR-3 = assay: COMPARE screening (NCI), GI50 in OVCAR-3
Source text: as §1, §2

[2] = Homo sapiens, HOP-62, read-out: Cytotoxicity GI50, lung HOP-62, lung, HOP-62, concentration corresponding to 50% growth inhibition
[3] = Homo sapiens, HCT-116, read-out: Cytotoxicity GI50, colon HCT-116, colon, HCT-116, concentration corresponding to 50% growth inhibition
[4] = Homo sapiens, UACC-62, read-out: Cytotoxicity GI50, melanoma UACC-62, melanoma, UACC-62, concentration corresponding to 50% growth inhibition
[5] = Homo sapiens, SN12C, read-out: Cytotoxicity GI50, renal SN12C, renal, SN12C, concentration corresponding to 50% growth inhibition
[6] = Homo sapiens, DU-145, read-out: Cytotoxicity GI50, prostate DU-145, prostate, DU-145, concentration corresponding to 50% growth inhibition
[7] = Homo sapiens, MDA-MB-435, read-out: Cytotoxicity GI50, breast MDA-MB-435, breast, MDA-MB-435, concentration corresponding to 50% growth inhibition
[8] = Homo sapiens, OVCAR-3, read-out: Cytotoxicity GI50, ovarian OVCAR-3, ovarian, OVCAR-3, concentration corresponding to 50% growth inhibition

Row | Structure (SMILES) | GI50 (HOP-62; [2]) | GI50 (HCT-116; [3]) | GI50 (SF-539) | GI50 (UACC-62; [4]) | GI50 (SN12C; [5]) | GI50 (DU-145; [6]) | GI50 (MDA-MB-435; [7]) | top1-mediated DNA cleavage band at site 37 (topoisomerase I) | top1-mediated DNA cleavage band at site 44 (topoisomerase I) | GI50 (OVCAR-3; [8]) | MGM (mean GI50 across cell lines) [1] | Top 1 Cleavage (topoisomerase I; Table 1) | further results
1 | COc1cc2c3c(n(C)c(=O)c2cc1OC)-c1cc2c(cc1C3=O)OCO2 [A, reference compound] |  |  |  |  |  |  |  |  |  |  |  |  | GI50 (MDA-MB-435): 96 µM; IC50 [1]: 20 µM
2 | CC[C@@]1(O)C(=O)OCc2c1cc1n(c2=O)Cc2cc3ccccc3nc2-1 [B, camptothecin, reference compound] | 0.01 µM | 0.03 µM | 0.01 µM | 0.01 µM | 0.02 µM | 0.01 µM | 0.04 µM |  |  |  |  |  | 
3 | COc1cc2c3c(n(CCCNCCO)c(=O)c2cc1OC)-c1cc2c(cc1C3=O)OCO2 [C, reference compound] |  |  |  |  |  |  |  | not seen | observed |  |  |  | 
4 | COc1cc2c[n+](CCCN)c3c(c2cc1OC)C(=O)c1cc2c(cc1-3)OCO2 [Compound 7ab, 6-(3-Amino-1-propyl)-2,3-dimethoxy-8,9-(methylenedioxy)-1′-oxo-indeno[1,2-c]isoquinolinium Chloride] |  |  |  |  |  |  |  |  |  |  |  |  | IC50 [1]: 0.167 µM
5 | COc1cc2c(cc1OC)-c1ncc3cc(OC)c(OC)cc3c1C2.Cl [Compound 9aa, 2,3,8,9-Tetramethoxy-11H-indeno[1,2-c]isoquinoline Hydrochloride] |  | > 50 µM | > 50 µM | > 50 µM | > 50 µM | > 50 µM | > 50 µM | not seen | observed | > 50 µM | 44.7 µM | ++ (++, similar activity as compound A) | 
6 | COC1=C(OC)Cc2c3c(ncc2=C1)=c1cc2c(cc1=C3)OCO2.Cl [Compound 9ab, 2,3-Dimethoxy-8,9-methylenedioxy-1H-indeno[1,2-c]isoquinoline Hydrochloride] | 0.0721 µM | > 100 µM | < 0.01 µM | < 0.01 µM | > 100 µM | 0.0281 µM | < 0.01 µM | not seen | observed |  | 0.0505 µM | +++ (+++ and ++++, greater activity than compound A) | 
7 | COc1cc2c(cc1OC)-c1ncc3cc4c(cc3c1C2)OCO4.Cl [Compound 9ba, 8,9-Dimethoxy-2,3-methylenedioxy-11H-indeno [1,2-c]isoquinoline hydrochloride] |  | 11.1 µM | 23.4 µM | > 100 µM | > 100 µM | 25.3 µM | 63.4 µM | not seen | observed | 61.2 µM | 33.9 µM | +++ (+++ and ++++, greater activity than compound A) | 
8 | COc1cc2c(c(OC)c1OC)-c1ncc3cc4c(cc3c1C2)OCO4.Cl [Compound 9bc, 7,8,9-Trimethoxy-2,3-methylenedioxy-11H-indeno[1,2-c]isoquinoline Hydrochloride] | 21.7 µM | 18.8 µM |  | 19.3 µM | 13.4 µM | 23.2 µM | 13.2 µM |  |  | 15.5 µM | 20.9 µM | 0 (0, no activity) | 
9 | COc1cc2c(c(OC)c1OC)-c1ncc3cc(OC)c(OC)c(OC)c3c1C2.Cl [Compound 9cc, 1,2,3,7,8,9-Hexamethoxy-11H-indeno[1,2-c]isoquinoline Hydrochloride] | 35.4 µM | 33.5 µM |  | 17.4 µM | 17.6 µM | 26.6 µM | 20.8 µM |  |  | 19.1 µM | 24 µM |  | Top 1 Cleavage (topoisomerase I; Table 2, Hydrochloride): 0 (0, no activity)
10 | COc1ccc(OC)c2c3c(ncc12)-c1cc2c(cc1C3)OCO2.Cl [Compound 9db, 1,4-Dimethoxy-8,9-methylenedioxy-11H-indeno[1,2-c]isoquinoline Hydrochloride] | < 0.01 µM | 0.249 µM |  | > 100 µM | > 100 µM | 48.4 µM | > 100 µM |  |  | 26.9 µM | 24.5 µM |  | Top 1 Cleavage (topoisomerase I; Table 2): ++ (++, similar activity as compound A)
11 | COc1ccc2c(c1OC)-c1ncc3cc(OC)c(OC)c(OC)c3c1C2.Cl [Compound 9ea, 1,2,3,7,8-Pentamethoxy-11H-indeno[1,2-c]isoquinoline Hydrochloride] | 16 µM | 8.81 µM |  | 3.84 µM |  |  |  |  |  | 0.529 µM | 13.2 µM |  | Top 1 Cleavage (topoisomerase I; Table 2): ++ (++, similar activity as compound A)
12 | COc1cc2cnc3c(c2c(OC)c1OC)Cc1ccc2c(c1-3)OCO2.Cl [Compound 9eb, 1,2,3-Trimethoxy-7,8-methylenedioxy-11H-indeno[1,2-c]isoquinoline Hydrochloride] |  | 22.1 µM |  | 22.4 µM |  | 26.9 µM | > 100 µM |  |  |  | 26.3 µM |  | Top 1 Cleavage (topoisomerase I; Table 2): ++ (++, similar activity as compound A)
13 | COc1cc2c(c(OC)c1OC)-c1ncc3cc(OC)c(OC)c(OC)c3c1C2.Cl [Compound 9ec, 1,2,3,7,8,9-Hexamethoxy-11H-indeno[1,2-c]isoquinoline Hydrochloride] |  |  |  |  |  |  |  |  |  |  |  |  | GI50 (HOP-62; human): 28.5 µM; GI50 (HCT-116; human): 27.8 µM; GI50 (UACC-62; human): 21.1 µM; GI50 (OVCAR-3; human): 21.5 µM; GI50 (SN12C; human): 20.3 µM; GI50 (DU-145; human): 29.6 µM; GI50 (MDA-MB-435; human): 23 µM; IC50 ([1]; Hydrochloride): 26.3 µM; Top 1 Cleavage (topoisomerase I; Table 2, Hydrochloride): ++ (++, similar activity as compound A)
